The values below come from paper PMC7180638, “Synthesis of Pyrrolidine Monocyclic Analogues of Pochonicine and Its Stereoisomers: Pursuit of Simplified Structures and Potent β-N-Acetylhexosaminidase Inhibition” (Molecules, 2020).

pIC50: −log10 of the molar value. Structures can show the parent of a compound that is named as a salt. Where two headings read alike, the source gives them in different places.

Format in all cases: biochemical
One test concerns the target β-Glucosidase (Almond). Description: β-Glucosidase (almond) inhibition. As to the method:
(§1) With rat intestinal maltase as an exception, other enzymes were purchased from Sigma-Aldrich Chemical Co. (St. Louis, MO, USA). Brush border membranes prepared from rat small intestine according to the method of Kessler et al. were assayed at pH 6.8 for rat intestinal maltase using maltose. The released D-glucose was determined colorimetrically using the Glucose CII-test Wako (Wako Pure Chemical Ind.; Osaka, Japan). Other glycosidase activities were determined using an appropriate p-nitrophenyl glycoside as substrate in a buffer solution at the optimal pH value of each enzyme. The reaction was stopped by adding 400 mM Na2CO3. The released p-nitrophenol was measured spectrometrically at 400 nm.

In test [1] the target is T1, β-Galactosidase (Bovine liver) (Bos taurus, UniProt F1MNT6).
T1 sequence (F1MNT6 1-469): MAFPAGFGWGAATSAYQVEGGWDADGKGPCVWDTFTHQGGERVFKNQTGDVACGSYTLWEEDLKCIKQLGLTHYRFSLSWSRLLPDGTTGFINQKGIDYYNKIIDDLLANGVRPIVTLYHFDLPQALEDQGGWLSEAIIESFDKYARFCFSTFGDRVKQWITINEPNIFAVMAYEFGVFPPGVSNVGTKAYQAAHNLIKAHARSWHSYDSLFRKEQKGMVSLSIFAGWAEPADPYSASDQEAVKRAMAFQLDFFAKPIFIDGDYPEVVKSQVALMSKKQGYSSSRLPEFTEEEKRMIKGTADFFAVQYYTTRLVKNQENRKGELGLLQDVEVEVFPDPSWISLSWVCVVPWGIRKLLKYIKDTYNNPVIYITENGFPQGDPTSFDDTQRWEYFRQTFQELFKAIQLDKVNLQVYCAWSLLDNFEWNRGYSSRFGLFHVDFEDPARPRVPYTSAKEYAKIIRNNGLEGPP
The experiment in a line: β-Galactosidase (bovine liver) inhibition. As for the experimental part: as §1

The target of test [2] is T2, α-Mannosidase (Jack bean) (Canavalia ensiformis, UniProt C0HJB3).
T2 construct: purchased Sigma-Aldrich Chemical Co
T2 sequence (C0HJB3 1-981): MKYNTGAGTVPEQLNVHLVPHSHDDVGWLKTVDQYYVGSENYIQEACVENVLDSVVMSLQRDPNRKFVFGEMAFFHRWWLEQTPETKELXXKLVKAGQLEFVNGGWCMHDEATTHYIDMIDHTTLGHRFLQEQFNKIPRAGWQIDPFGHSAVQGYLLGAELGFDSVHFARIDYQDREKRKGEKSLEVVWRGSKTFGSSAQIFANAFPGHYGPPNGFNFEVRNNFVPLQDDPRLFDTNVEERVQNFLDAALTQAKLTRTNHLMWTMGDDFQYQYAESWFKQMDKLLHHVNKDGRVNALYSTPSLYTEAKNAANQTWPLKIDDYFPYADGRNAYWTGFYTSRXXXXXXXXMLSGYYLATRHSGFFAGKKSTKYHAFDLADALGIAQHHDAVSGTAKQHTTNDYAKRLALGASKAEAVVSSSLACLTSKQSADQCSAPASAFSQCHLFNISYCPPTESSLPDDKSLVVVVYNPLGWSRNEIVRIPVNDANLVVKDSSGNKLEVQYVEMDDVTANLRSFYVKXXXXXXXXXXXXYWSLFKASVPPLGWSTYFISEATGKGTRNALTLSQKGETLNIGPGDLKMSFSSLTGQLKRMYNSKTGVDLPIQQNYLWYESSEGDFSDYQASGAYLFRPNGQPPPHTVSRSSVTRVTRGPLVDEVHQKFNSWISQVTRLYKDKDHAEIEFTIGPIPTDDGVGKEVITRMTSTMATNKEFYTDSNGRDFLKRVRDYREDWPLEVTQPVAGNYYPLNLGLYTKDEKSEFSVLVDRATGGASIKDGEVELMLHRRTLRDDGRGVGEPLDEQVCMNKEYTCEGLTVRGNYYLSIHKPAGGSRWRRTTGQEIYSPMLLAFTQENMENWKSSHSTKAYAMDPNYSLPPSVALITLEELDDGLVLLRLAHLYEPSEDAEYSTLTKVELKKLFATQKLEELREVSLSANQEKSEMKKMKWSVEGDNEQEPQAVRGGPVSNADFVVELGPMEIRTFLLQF
Description: α-Mannosidase (Jack bean) inhibition. As for the experimental part:
as §1

For test [3], the target named is T3, α,α-Trehalase (Porcine kidney) (Sus scrofa, UniProt I3LIR5).
T3 construct: purchased Sigma-Aldrich Chemical Co; host or cells: porcine kidney
T3 sequence (I3LIR5 24-583): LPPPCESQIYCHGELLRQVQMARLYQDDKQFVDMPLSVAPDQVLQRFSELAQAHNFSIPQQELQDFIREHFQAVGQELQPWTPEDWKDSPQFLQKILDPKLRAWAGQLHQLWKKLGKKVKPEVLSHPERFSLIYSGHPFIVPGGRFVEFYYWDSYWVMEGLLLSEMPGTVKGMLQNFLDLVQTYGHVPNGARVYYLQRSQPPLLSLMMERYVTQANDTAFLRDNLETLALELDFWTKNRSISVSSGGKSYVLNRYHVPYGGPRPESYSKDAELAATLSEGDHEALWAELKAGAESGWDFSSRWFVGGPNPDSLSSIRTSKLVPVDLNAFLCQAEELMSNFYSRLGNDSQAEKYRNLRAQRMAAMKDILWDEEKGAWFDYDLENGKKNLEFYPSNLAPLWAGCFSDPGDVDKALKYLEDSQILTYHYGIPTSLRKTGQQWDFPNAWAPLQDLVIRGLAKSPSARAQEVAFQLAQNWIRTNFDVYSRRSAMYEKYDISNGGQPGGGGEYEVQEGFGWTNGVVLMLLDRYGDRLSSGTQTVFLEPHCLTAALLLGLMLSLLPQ
Description: α,α-Trehalase (porcine kidney) inhibition. As for the experimental part:
as §1

The target in test [4] is T4, Amyloglucosidase (A. niger) (Aspergillus niger, UniProt P69328).
T4 construct: purchased Sigma-Aldrich Chemical Co
Description: Amyloglucosidase (A. niger) inhibition. As for the experimental part: as §1

For test [5], the target named is α-L-Rhamnosidase (P. decumbens). Description: α-L-Rhamnosidase (P. decumbens) inhibition. As for the experimental part:
as §1

Test [6] addresses T5, β-Glucuronidase (E. coli) (Escherichia coli, UniProt P05804).
T5 construct: purchased Sigma-Aldrich Chemical Co
The experiment in a line: β-Glucuronidase (E. coli) inhibition. As for the experimental part:
as §1

In test [7] the target is β-N-Acetylhexosaminidase (HL60). The experiment in a line: β-N-Acetylhexosaminidase (HL60) inhibition. Particulars: for pIC50 / IC50: β-N-Acetylhexosaminidase (β-GlcNAcase); for pIC50: read-out: IC50; for Inhibition % at 1000 μM: β-N-Acetylhexosaminidase. As for the experimental part: as §1
Setting [8] is: 1000 μM, read-out: Inhibition % at 1000 μM.

T4 sequence (P69328 25-640): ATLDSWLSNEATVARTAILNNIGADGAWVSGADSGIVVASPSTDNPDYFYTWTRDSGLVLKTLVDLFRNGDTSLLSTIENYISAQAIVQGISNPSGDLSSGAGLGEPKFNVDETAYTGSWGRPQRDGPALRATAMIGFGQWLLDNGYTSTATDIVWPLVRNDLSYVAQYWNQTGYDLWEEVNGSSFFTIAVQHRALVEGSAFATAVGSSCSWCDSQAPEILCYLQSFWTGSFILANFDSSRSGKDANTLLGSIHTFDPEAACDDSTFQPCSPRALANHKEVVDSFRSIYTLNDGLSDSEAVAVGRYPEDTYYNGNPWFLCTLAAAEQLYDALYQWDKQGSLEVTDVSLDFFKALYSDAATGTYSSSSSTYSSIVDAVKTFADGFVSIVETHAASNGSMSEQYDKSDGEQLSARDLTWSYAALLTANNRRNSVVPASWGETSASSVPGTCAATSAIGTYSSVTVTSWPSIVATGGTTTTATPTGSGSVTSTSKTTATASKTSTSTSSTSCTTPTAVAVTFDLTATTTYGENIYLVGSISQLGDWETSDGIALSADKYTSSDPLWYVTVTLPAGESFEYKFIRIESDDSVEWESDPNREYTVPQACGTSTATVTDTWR
T5 sequence (P05804 whole entry): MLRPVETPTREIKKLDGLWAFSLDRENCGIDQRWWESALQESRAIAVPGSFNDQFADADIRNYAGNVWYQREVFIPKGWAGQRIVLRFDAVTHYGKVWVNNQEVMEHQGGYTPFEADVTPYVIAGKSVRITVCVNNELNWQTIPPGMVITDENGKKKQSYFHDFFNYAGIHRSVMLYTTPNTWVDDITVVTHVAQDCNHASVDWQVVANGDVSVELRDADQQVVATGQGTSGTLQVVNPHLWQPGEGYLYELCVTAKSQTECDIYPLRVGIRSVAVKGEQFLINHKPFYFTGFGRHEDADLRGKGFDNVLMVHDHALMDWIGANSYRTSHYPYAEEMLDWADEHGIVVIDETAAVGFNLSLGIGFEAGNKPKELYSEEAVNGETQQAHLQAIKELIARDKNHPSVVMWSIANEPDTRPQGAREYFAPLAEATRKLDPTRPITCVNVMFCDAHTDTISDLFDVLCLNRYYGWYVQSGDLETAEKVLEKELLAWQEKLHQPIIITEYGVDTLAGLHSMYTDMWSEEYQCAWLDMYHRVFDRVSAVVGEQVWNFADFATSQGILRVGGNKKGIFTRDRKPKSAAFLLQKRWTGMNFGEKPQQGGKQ

The term pIC50 denotes the negative decadic logarithm of the IC50, by convention in mol/L. On to `CC(=O)NC[C@H]1N[C@H](CO)[C@H](O)[C@@H]1O` [D-10, 1-N-acetylamino-2,5-imino-1,2,5-trideoxy-D-altritol hydrochloride], for which the IC50 entry (on β-Glucosidase (Almond); in test [5]) was “NI (No Inhibition (less than 50% at 1000 μM))” throughout. In addition, the “Inhibition % at 1000 μM” value is recorded as 41.0% in the test on β-Glucosidase (Almond) and 8.3% in test [5]. The inhibition at 1000 µM in test [1] (setting [8]) was 3.3%; in test [1] (read-out: IC50), below 50%; in test [3] (setting [8]), 0%; in test [3] (read-out: IC50) it was below 50%; in test [4] (setting [8]), 3.8%; in test [4] (read-out: IC50), below 50%. Also, the inhibition at 1000 µM in test [6] (setting [8]) is 0%; in test [6] (read-out: IC50), below 50%. Besides, the pIC50 in test [2] is 3.69; in test [7], 5.00.

Turning to `CC(=O)NC[C@@H]1N[C@H](CO)[C@@H](O)[C@H]1O` [H-10, 1-N-acetylamino-2,5-imino-1,2,5-trideoxy-L-allitol hydrochloride], the IC50 entry (against β-Glucosidase (Almond); in test [5]; in test [7]) was “NI (No Inhibition (less than 50% at 1000 μM))” each time. Also, the “Inhibition % at 1000 μM” value in the test with β-Glucosidase (Almond) was determined as 17.1%; in test [5] it was 7.7%; in test [7], 0.3%. In addition, the inhibition at 1000 µM is 3.6% in test [1] (setting [8]); below 50% in test [1] (read-out: IC50); 9.5% in test [2] (setting [8]); below 50% in test [2] (read-out: IC50); 40.9% in test [3] (setting [8]); below 50% in test [3] (read-out: IC50). Also, the inhibition at 1000 µM in test [4] (setting [8]) is 8.3%; in test [4] (read-out: IC50), below 50%; in test [6] (setting [8]), 0%; in test [6] (read-out: IC50) it was below 50%.

Turning to `CC(=O)NC[C@H]1N[C@@H](CO)[C@@H](O)[C@@H]1O` [E-10a, 1-N-acetylamino-2,5-imino-1,2,5-trideoxy-D-glucitol hydrochloride], the IC50 entry (on β-Glucosidase (Almond); in test [5]) was “NI (No Inhibition (less than 50% at 1000 μM))” in each case. For the same molecule, the “Inhibition % at 1000 μM” value with β-Glucosidase (Almond) is reported as 37.9%; in test [5], 11.8%. Also, the inhibition at 1000 µM in test [1] (setting [8]) is 4.9%; in test [1] (read-out: IC50) it was below 50%; in test [2] (setting [8]), 0.7%; in test [2] (read-out: IC50) it was below 50%; in test [3] (setting [8]), 5.6%; in test [3] (read-out: IC50), below 50%. Further, the inhibition at 1000 µM in test [4] (setting [8]) is 4%; in test [4] (read-out: IC50), below 50%; in test [6] (setting [8]) it was 0%; in test [6] (read-out: IC50) it was below 50%. In addition, in test [7], the pIC50 was 3.23.

Take `CC(=O)NC[C@H]1N[C@H](CO)[C@H](O)[C@H]1O` [F-10b, 1-N-acetylamino-2,5-imino-1,2,5-trideoxy-D-iditol hydrochloride]: the IC50 result (against β-Glucosidase (Almond); in test [5]; in test [7]) was “NI (No Inhibition (less than 50% at 1000 μM))” each time. The “Inhibition % at 1000 μM” value with β-Glucosidase (Almond) amounted to 19.8%; in test [5], 3.0%; in test [7], 16.6%. For the same molecule, the inhibition at 1000 µM is 4.2% in test [1] (setting [8]); below 50% in test [1] (read-out: IC50); 1.6% in test [2] (setting [8]); below 50% in test [2] (read-out: IC50); 0% in test [3] (setting [8]); below 50% in test [3] (read-out: IC50). Also, the inhibition at 1000 µM is 5.7% in test [4] (setting [8]), below 50% in test [4] (read-out: IC50), 0% in test [6] (setting [8]) and below 50% in test [6] (read-out: IC50).
